Data set [1] is described as follows: Rate measurements of cycloaddition of acetylenes with azides by UV spectroscopy in methanol. In kind it is physicochemical. Conditions: 25±0.1° C. The protocol: The rate measurements of cycloaddition of acetylenes 6c and 4a were conducted by UV spectroscopy at 25±0.1° C. A calculated amount of 0.25 M solutions of an azide required to achieve desired azide concentration (6×10^−4-1.5×10^−2 M) was added to a thermally equilibrated ca. 6×10^−5 M solution of acetylene in MeOH. Reactions were monitored by following the decay of the characteristic absorbance of acetylenes ca. 317 nm (FIG. 6). Consumption of starting material followed a first order equation well and the pseudo-first order rate constants were obtained by the by least-squares fitting of the data to a single exponential equation. The dependence of the observed rates on the concentration of azides was linear.
The rate measurements of the cycloaddition reaction of acetylene 6c with azides was conducted by UV spectroscopy following the decay of the 317 nm band of 6c (as shown in FIG. 6) in the photolysate at various concentrations of azides from about 0.5 mM to about 20 mM). […]
Rate measurements were performed using Carry-300 Bio UV-Vis spectrometer equipped with a thermostatable cell holder. […] A calculated amount of 0.25 M solutions of an azide required to achieve desired azide concentration (6×10^−4−1.5×10^−2M) was added at once. Reactions were monitored by following the decay of the characteristic absorbance of acetylene 6c at approximately 317 nm (FIG. 6). […]

The nature of data set [2]: Stability of cyclopropenones (shelf life, elevated temperature, solution). It is filed as physicochemical. Conditions: 3 days at 40° C. in aqueous and methanol solutions. The text has this: Diphenyl cyclopropenones, such as 5a-c, 18a-c, and 19, had long shelf lives, and could withstand elevated temperatures. […] (Poloukhtine & Popik (2003) J. Org. Chem. 68: 7833-7840). The cyclopropenones are also stable in solution in the absence of light.

For “3,9-Dibutoxy-5,6-didehydro-11,12-dihydrodibenzo[a,e][8]annulen-2-yl [6c]”, the “Bimolecular rate constant, Rate” value in data set [1] (1-phenyl-2-azidopropane) was determined as 0.0343 M⁻¹ s⁻¹; in data set [1] (n-butyl azide), 0.0586 M⁻¹ s⁻¹.

With `CCCCOc1ccc2c(c1)CCc1cc(OCCCC)ccc1-c1c-2c1=O` [5c, 4,9-dibutoxy-6,7-dihydro-1H-dibenzo[a,e]cyclopropa[c][8]annulen-1-one], the “Decomposition in solution in the absence of light” value in data set [2] is “no decomposition”.

For the origin of these results see patent publication US8426649B2, “Cyclopropenones and the photochemical generation of cyclic alkynes therefrom” (University of Georgia Research Foundation, Inc., priority 2009, dated 2013).
